Among the data in ChEMBL document CHEMBL2069172, “Transition state analogue inhibitors of human methylthioadenosine phosphorylase and bacterial methylthioadenosine/S-adenosylhomocysteine nucleosidase incorporating acyclic ribooxacarbenium ion mimics” (Bioorg Med Chem, 2012) are Ki and Ratio values, retold here.

pKi: −log10 of the molar value.

By pKi is commonly meant −log10 of the Ki, conventionally taken in molar units.

The target in experiment [1] is T1, S-methyl-5'-thioadenosine phosphorylase (Homo sapiens, UniProt Q13126).
T1 sequence (Q13126 whole entry): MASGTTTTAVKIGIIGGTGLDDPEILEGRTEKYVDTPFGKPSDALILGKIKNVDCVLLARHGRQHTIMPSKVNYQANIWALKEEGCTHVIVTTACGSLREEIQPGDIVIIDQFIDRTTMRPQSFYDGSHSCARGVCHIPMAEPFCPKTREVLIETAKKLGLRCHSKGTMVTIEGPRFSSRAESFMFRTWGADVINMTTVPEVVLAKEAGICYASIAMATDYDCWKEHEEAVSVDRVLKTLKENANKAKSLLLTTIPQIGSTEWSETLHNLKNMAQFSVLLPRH
The experiment is described as follows: Inhibition of human MTAP assessed as reduction in methylthioadenosine phosphorolysis/hydrolysis.

Experiment [2] in a line: Inhibition of Neisseria meningitidis MTAN assessed as reduction in methylthioadenosine phosphorolysis/hydrolysi.
Experiment [3] is described as follows: Inhibition of Escherichia coli MTAN assessed as reduction in methylthioadenosine phosphorolysis/hydrolysis.
A further experiment deals with Escherichia coli. The experiment is described as follows: Ratio of Km to Ki for Escherichia coli MTAN assessed as reduction in methylthioadenosine phosphorolysis/hydrolysis.

For the compound `CSC[C@@H](O)CNCc1c[nH]c2c(N)ncnc12`, the pKi in experiment [1] is 6.22; in experiment [2] it was 7.44; in experiment [3] it was 7.40.
For `CSC[C@@H](CNCc1c[nH]c2c(N)ncnc12)[C@@H](O)CO` (racemic) the same measures were 7.47, 8.30 and 8.05.
As for `CSC[C@H](CO)N[C@H](CO)c1c[nH]c2c(N)ncnc12`, the pKi was 7.33 in experiment [2] and 5.76 in experiment [3].
In the case of `CSCC(CO)NCc1c[nH]c2c(N)ncnc12` (racemic), the values for the pKi in experiment [1] and in experiment [2] were 7.92 and 9.10, respectively.
As to `CSCC(CO)(CO)NCc1c[nH]c2c(N)ncnc12`, the pKi in experiment [2] was 8.40; in experiment [3] it was 8.24.
Regarding `CSC[C@H](CO)NCc1c[nH]c2c(N)ncnc12`, the pKi in experiment [1] was 7.47.
For `CSC[C@@H](CN(C)Cc1c[nH]c2c(N)ncnc12)[C@@H](O)CO` (racemic), the pKi in experiment [1] is 7.92; in experiment [2], 7.21; in experiment [3], 5.64. Besides, the Ratio with Escherichia coli is 19.
For `CSC[C@H](O)[C@@H](CO)CN(C)Cc1c[nH]c2c(N)ncnc12` (racemic), the pKi in experiment [1] is 6.98; in experiment [2], 6.88; in experiment [3], 6.40.
Turning to `CSC[C@H]1N[C@@H](c2c[nH]c3c(N)ncnc23)[C@H](O)[C@@H]1O`, the pKi in experiment [2] is 9.44; in experiment [3], 10.10.
On to `CSC[C@@H](O)[C@@H](CO)NCc1c[nH]c2c(N)ncnc12`, for which the pKi in experiment [1] is 8.28.
Still for that read-out and setting: the figure for `CSC[C@H](O)[C@@H](CO)NCc1c[nH]c2c(N)ncnc12` is 7.06.
Turning to `CSC[C@@H](CO)NCc1c[nH]c2c(N)ncnc12`, the pKi in experiment [1] is 8.36. The Ratio in the experiment on Escherichia coli was determined as 1200.
For `CSC[C@@H](O)[C@H](CO)NCc1c[nH]c2c(N)ncnc12`, in experiment [1], the pKi was 7.47.
With `CSCC(CO)CNCc1c[nH]c2c(N)ncnc12` (racemic), the results for the pKi in experiment [1], in experiment [2] and in experiment [3] were 8.00, 8.92 and 9.44, respectively.
For `CSC[C@H]1CN(Cc2c[nH]c3c(N)ncnc23)C[C@@H]1O`, in experiment [2], the pKi is 9.85.
For the compound `CSC[C@H](O)[C@@H](O)CN(C)Cc1c[nH]c2c(N)ncnc12` (racemic), the pKi in experiment [1] was 6.43; in experiment [2] it was 7.07; in experiment [3], 6.69.
